Test results as given in ChEMBL document CHEMBL3885881, “DrugMatrix”.

Species: Rattus norvegicus
Assay: DrugMatrix - Regimen: Daily Repeat
Format: toxicity, organism-based, Sprague-Dawley
Parameters: regimen Daily Repeat, gender Male, age 6-8 weeks
Conditions: in vivo, […]; for NEUTROPHIL / PLATELET COUNT / ABSOLUTE BASOPHIL / ABSOLUTE EOSINOPHIL / ABSOLUTE LYMPHOCYTE / ABSOLUTE MONOCYTE / ABSOLUTE SEGMENTED NEUTROPHIL / BASOPHIL / EOSINOPHIL / ERYTHROCYTE COUNT / HEMATOCRIT / HEMOGLOBIN / LEUKOCYTE COUNT / LYMPHOCYTE / MEAN CORPUSCULAR HEMOGLOBIN / MEAN CORPUSCULAR HEMOGLOBIN CONCENTRATION / MEAN CORPUSCULAR VOLUME / MONOCYTE / NUCLEATED RED BLOOD CELLS: tissue Blood; for ALANINE AMINOTRANSFERASE / ALBUMIN / ALKALINE PHOSPHATASE / ASPARTATE AMINOTRANSFERASE / BLOOD UREA NITROGEN / CHLORIDE / CHOLESTEROL / CREATINE PHOSPHOKINASE / CREATININE / GLUCOSE / LACTATE DEHYDROGENASE / LIPASE / PHOSPHORUS / POTASSIUM / TOTAL BILIRUBIN / TOTAL PROTEIN / URIC ACID / SODIUM / CARBON DIOXIDE: tissue Plasma
[1] = ip, 2 mg/kg, route intraperitoneal, dose level High, time 28 day, vehicle 100 % SALINE
[2] = ip, 2 mg/kg, route intraperitoneal, dose level High, time 14 day, vehicle 100 % SALINE
[3] = po, 66 mg/kg, 72 h, route oral GAVAGE, dose level High, time 3 day
[4] = po, 66 mg/kg, 120 h, route oral GAVAGE, dose level High, time 5 day
[5] = po, 72 h, route oral GAVAGE, dose 6.6 mg/Kg, dose level Low, time 3 day
[6] = po, 120 h, route oral GAVAGE, dose 6.6 mg/Kg, dose level Low, time 5 day

CADMIUM DICHLORIDE
NEUTROPHIL [1]: 24.62%
PLATELET COUNT [1]: 1656.44 x10E3/uL
ALANINE AMINOTRANSFERASE [2]: 35.4 u/L
ALBUMIN [2]: 3.24 G/DL
ALKALINE PHOSPHATASE [2]: 169.6 u/L
ASPARTATE AMINOTRANSFERASE [2]: 182.2 u/L
BLOOD UREA NITROGEN [2]: 23.8 mg/dL
CHLORIDE [2]: 109.2 MEQ/L
CHOLESTEROL [2]: 58.2 mg/dL
CREATINE PHOSPHOKINASE [2]: 323 u/L
CREATININE [2]: 0.3 mg/dL
GLUCOSE [2]: 101 mg/dL
LACTATE DEHYDROGENASE [2]: 321.4 u/L
LIPASE [2]: 87.6 u/L
PHOSPHORUS [2]: 10.28 mg/dL
POTASSIUM [2]: 6.42 MEQ/L
TOTAL BILIRUBIN [2]: 0.26 mg/dL
TOTAL PROTEIN [2]: 5.94 G/DL
URIC ACID [2]: 2.08 mg/dL
ALANINE AMINOTRANSFERASE [1]: 39.44 u/L
ALKALINE PHOSPHATASE [1]: 111 u/L
ASPARTATE AMINOTRANSFERASE [1]: 167.44 u/L
BLOOD UREA NITROGEN [1]: 19.67 mg/dL
CHLORIDE [1]: 108.89 MEQ/L
CHOLESTEROL [1]: 51.67 mg/dL
CREATININE [1]: 0.44 mg/dL
GLUCOSE [1]: 106.78 mg/dL
LACTATE DEHYDROGENASE [1]: 230.56 u/L
LIPASE [1]: 45.56 u/L
POTASSIUM [1]: 6.7 MEQ/L
SODIUM [1]: 151 MEQ/L
TOTAL BILIRUBIN [1]: 0.28 mg/dL
TOTAL PROTEIN [1]: 6.61 G/DL
URIC ACID [1]: 1.71 mg/dL
ABSOLUTE BASOPHIL [3]: 0 CELLS/uL
ABSOLUTE EOSINOPHIL [3]: 54 CELLS/uL
ABSOLUTE LYMPHOCYTE [3]: 13921.33 CELLS/uL
ABSOLUTE MONOCYTE [3]: 108.67 CELLS/uL
ABSOLUTE SEGMENTED NEUTROPHIL [3]: 2549.33 CELLS/uL
BASOPHIL [3]: 0%
EOSINOPHIL [3]: 0.33%
ERYTHROCYTE COUNT [3]: 5.45 x10E6/uL
HEMATOCRIT [3]: 35.37%
HEMOGLOBIN [3]: 13.67 G/DL
LEUKOCYTE COUNT [3]: 16.63 x10E3/uL
LYMPHOCYTE [3]: 83.67%
MEAN CORPUSCULAR HEMOGLOBIN [3]: 25.13 pg
MEAN CORPUSCULAR HEMOGLOBIN CONCENTRATION [3]: 38.63 G/DL
MEAN CORPUSCULAR VOLUME [3]: 64.97 fL
MONOCYTE [3]: 0.67%
NEUTROPHIL [3]: 15.33%
NUCLEATED RED BLOOD CELLS [3]: 0 /100WBC
PLATELET COUNT [3]: 1218.67 x10E3/uL
ALANINE AMINOTRANSFERASE [3]: 57.67 u/L
ALBUMIN [3]: 4.1 G/DL
ALKALINE PHOSPHATASE [3]: 436 u/L
ASPARTATE AMINOTRANSFERASE [3]: 100 u/L
BLOOD UREA NITROGEN [3]: 12.33 mg/dL
CARBON DIOXIDE [3]: 25 mmol/L
CHOLESTEROL [3]: 60.33 mg/dL
CREATINE PHOSPHOKINASE [3]: 279.67 u/L
CREATININE [3]: 0.17 mg/dL
LACTATE DEHYDROGENASE [3]: 310 u/L
LIPASE [3]: 11.33 u/L
PHOSPHORUS [3]: 12.93 mg/dL
POTASSIUM [3]: 7.2 MEQ/L
TOTAL BILIRUBIN [3]: 0.2 mg/dL
TOTAL PROTEIN [3]: 5.77 G/DL
ABSOLUTE BASOPHIL [4]: 0 CELLS/uL
ABSOLUTE EOSINOPHIL [4]: 0 CELLS/uL
ABSOLUTE LYMPHOCYTE [4]: 13248 CELLS/uL
ABSOLUTE MONOCYTE [4]: 120 CELLS/uL
ABSOLUTE SEGMENTED NEUTROPHIL [4]: 1432 CELLS/uL
BASOPHIL [4]: 0%
EOSINOPHIL [4]: 0%
ERYTHROCYTE COUNT [4]: 5.79 x10E6/uL
HEMATOCRIT [4]: 35.4%
HEMOGLOBIN [4]: 14.15 G/DL
LEUKOCYTE COUNT [4]: 14.8 x10E3/uL
LYMPHOCYTE [4]: 88%
MEAN CORPUSCULAR HEMOGLOBIN [4]: 24.55 pg
MEAN CORPUSCULAR HEMOGLOBIN CONCENTRATION [4]: 39.95 G/DL
MEAN CORPUSCULAR VOLUME [4]: 61.35 fL
MONOCYTE [4]: 1%
NEUTROPHIL [4]: 11%
NUCLEATED RED BLOOD CELLS [4]: 0 /100WBC
PLATELET COUNT [4]: 1357 x10E3/uL
ALANINE AMINOTRANSFERASE [4]: 63 u/L
ALBUMIN [4]: 4.1 G/DL
ALKALINE PHOSPHATASE [4]: 217.5 u/L
ASPARTATE AMINOTRANSFERASE [4]: 122 u/L
BLOOD UREA NITROGEN [4]: 14 mg/dL
CARBON DIOXIDE [4]: 18.5 mmol/L
CHLORIDE [4]: 112 MEQ/L
CHOLESTEROL [4]: 36 mg/dL
CREATINE PHOSPHOKINASE [4]: 975 u/L
CREATININE [4]: 0.2 mg/dL
GLUCOSE [4]: 189 mg/dL
LACTATE DEHYDROGENASE [4]: 198.5 u/L
LIPASE [4]: 11.5 u/L
POTASSIUM [4]: 6.8 MEQ/L
TOTAL BILIRUBIN [4]: 0.1 mg/dL
TOTAL PROTEIN [4]: 5.5 G/DL
URIC ACID [4]: 2.35 mg/dL
ABSOLUTE BASOPHIL [5]: 0 CELLS/uL
ABSOLUTE EOSINOPHIL [5]: 0 CELLS/uL
ABSOLUTE LYMPHOCYTE [5]: 17172.67 CELLS/uL
ABSOLUTE MONOCYTE [5]: 193.33 CELLS/uL
ABSOLUTE SEGMENTED NEUTROPHIL [5]: 1767.33 CELLS/uL
BASOPHIL [5]: 0%
EOSINOPHIL [5]: 0%
ERYTHROCYTE COUNT [5]: 5.25 x10E6/uL
HEMATOCRIT [5]: 32.93%
HEMOGLOBIN [5]: 13.07 G/DL
LEUKOCYTE COUNT [5]: 19.13 x10E3/uL
MEAN CORPUSCULAR HEMOGLOBIN CONCENTRATION [5]: 39.7 G/DL
MONOCYTE [5]: 1%
NUCLEATED RED BLOOD CELLS [5]: 0 /100WBC
PLATELET COUNT [5]: 1216 x10E3/uL
ALANINE AMINOTRANSFERASE [5]: 81 u/L
ALBUMIN [5]: 4 G/DL
ALKALINE PHOSPHATASE [5]: 508.5 u/L
ASPARTATE AMINOTRANSFERASE [5]: 91.67 u/L
BLOOD UREA NITROGEN [5]: 11.67 mg/dL
CARBON DIOXIDE [5]: 26 mmol/L
CHOLESTEROL [5]: 77.33 mg/dL
CREATINE PHOSPHOKINASE [5]: 283.33 u/L
CREATININE [5]: 0.19 mg/dL
GLUCOSE [5]: 152.67 mg/dL
LACTATE DEHYDROGENASE [5]: 195 u/L
LIPASE [5]: 12.33 u/L
PHOSPHORUS [5]: 11.57 mg/dL
POTASSIUM [5]: 6.8 MEQ/L
TOTAL BILIRUBIN [5]: 0.2 mg/dL
TOTAL PROTEIN [5]: 5.57 G/DL
URIC ACID [5]: 1.3 mg/dL
ABSOLUTE BASOPHIL [6]: 0 CELLS/uL
ABSOLUTE EOSINOPHIL [6]: 0 CELLS/uL
ABSOLUTE LYMPHOCYTE [6]: 4729 CELLS/uL
ABSOLUTE MONOCYTE [6]: 0 CELLS/uL
ABSOLUTE SEGMENTED NEUTROPHIL [6]: 237.67 CELLS/uL
BASOPHIL [6]: 0%
EOSINOPHIL [6]: 0%
ERYTHROCYTE COUNT [6]: 5.13 x10E6/uL
HEMATOCRIT [6]: 30.77%
HEMOGLOBIN [6]: 12.03 G/DL
LEUKOCYTE COUNT [6]: 4.97 x10E3/uL
LYMPHOCYTE [6]: 94.67%
MEAN CORPUSCULAR HEMOGLOBIN [6]: 23.43 pg
MEAN CORPUSCULAR HEMOGLOBIN CONCENTRATION [6]: 39.13 G/DL
MONOCYTE [6]: 0%
NEUTROPHIL [6]: 5.33%
NUCLEATED RED BLOOD CELLS [6]: 0 /100WBC
PLATELET COUNT [6]: 996.33 x10E3/uL
ALANINE AMINOTRANSFERASE [6]: 78.67 u/L
ALKALINE PHOSPHATASE [6]: 485.67 u/L
ASPARTATE AMINOTRANSFERASE [6]: 93 u/L
BLOOD UREA NITROGEN [6]: 12.67 mg/dL
CARBON DIOXIDE [6]: 30 mmol/L
CHOLESTEROL [6]: 72.33 mg/dL
CREATINE PHOSPHOKINASE [6]: 141.33 u/L
CREATININE [6]: 0.16 mg/dL
GLUCOSE [6]: 141.33 mg/dL
LACTATE DEHYDROGENASE [6]: 102.33 u/L
LIPASE [6]: 11 u/L
POTASSIUM [6]: 6.24 MEQ/L
SODIUM [6]: 149.5 MEQ/L
TOTAL BILIRUBIN [6]: 0.2 mg/dL
URIC ACID [6]: 0.97 mg/dL
